Assays:
Type in all cases: in vivo, human
[1] = test system: stage IV sigmoid colorectal cancer; assay: Treatment of stage IV sigmoid colorectal cancer patient with Varlitinib 300 mg BID and oxaliplatin/capecitabine; details: person, stage IV sigmoid colorectal cancer with metastasis, 300 mg bi-daily
Protocol: Example 4 Treatment of Stage IV Sigmoid Coloreactal Cancer with Varlitinib 300 mg BID Oxaliplatin/Capecitabine
A person with stage IV sigmoid colorectal cancer with metastasis to liver, lungs and lymph node.
The prior treatments included: • Anterior resection with right hemi-hepatetomy and cholecystecomy • XELOX (PD), XELIRI (PR), Irrinotecan & Cetuximab (SD) • Xeloda and Avastin (SD), Bayer PTEFb-CDK9 inhibitor (PD)
The treatment per 3 weeks cycle was 300 mg ASLAN001 orally bi-daily, oxaliplatin 130 mg/m^2 IV infusion (Day 1) and capecitabine 850 mg/m^2 (Day 1-14) until Cycle 6, then from Cycle 7+ onwards, Varlitinib 300 mg b-daily as monotherapy per 4 week cycle.

[2] = test system: gastric tumours co-expressing EGFR and HER2 or HER2 amplified; assay: Phase I monotherapy trial in gastric cancer patients, tumour biopsies analysed by immunohistochemistry; details: monotherapy 500 mg orally BID for 28 days, 23 patients; biopsies before and after treatment
Protocol: (R)—N4-[3-Chloro-4-(thiazol-2-ylmethoxy)-phenyl]-N6-(4-methyl-4,5,-dihydro-oxazol-2-yl)-quinazoline-4,6-diamine (Varlitinib Example 52 disclosed in WO2005/016346), is a small-molecule pan-HER inhibitor. It has been tested as a monotherapy in phase I clinical trials of gastric cancer patients. 23 patients, who had previously failed on one or more rounds of chemotherapy, and where eligible for trastuzumab, each received 500 mg of Varlitinib orally twice daily (BID) as monotherapy for 28 days. Tumour biopsies taken before and after treatment were analysed using immunohistochemistry.

bladder cancer = assay: Treatment of bladder cancer patient with 300 mg Valitinib and FOLFOX; details: person
Protocol: Example 7 Treatment of the Bladder Cancer with 300 mg Valitinib and FOLFOX A person was diagnosed with bladder cancer 2014. They received radical cystoprostatetomy and prior therapy with Cisplatin and radiotherapy (pelvis) on 20 Feb. 2014; gemcitabline and cisplatin on 10 Apr. 2015 with last dose on 8 May 2015. The patient received 9 cycles of 300 mg Valitinib BID and FOLFOX and 5 cycles of Varlitinib 300 mg monotherapy. The Valitinib in the combination therapy interruption from 21 to 27 Sep. 2015; 21 Oct. to 23 Oct.

[3] = test system: stage IV cholangiocarcinoma; assay: Treatment of cholangiocarcinoma patients with Varlitinib bi-daily and cisplatin/capecitabine chemotherapy; details: person
Protocol: Example 2 Treatment of Cholangiocarcinoma with Varlitinib 400 mg Bi-Daily Orally and Cisplatin/Capecitabine Combination Chemotherapy A person with stage IV cholangiocarcinoma (3 lesions) had progressive disease following treatment with: • radiotherapy, and • gemcitabine (Gemzar®) and cisplatin—6 months. […] The cisplatin and capecitabine regime was cisplatin 80 mg/m^2 IV infusion and capecitabine 1000 mg/m^2 orally twice daily for 14 days every 3 weeks. Example 3 Treatment of Cholangiocarcinoma with Varlitinib 500 mg Bi-Daily Orally and Cisplatin/Capecitabine Combination Chemotherapy A person with stage IV cholangiocarcinoma had progressive disease following treatment with radiotherapy and bi-weekly 5-FU. […] The cisplatin and capecitabine regime was cisplatin 80 mg/m^2 IV infusion and capecitabine 1000 mg/m^2 orally twice daily for 14 days every 3 weeks.

tumour = assay: Clinical data summary as of June 2016, Varlitinib combination arms
From the text: As of June 2016 the following clinical data summary: […]

gastric cancer = assay: Treatment of gastric cancer patients with Varlitinib 400 mg bi-daily and cisplatin/capecitabine chemotherapy; details: for tolerability / dose limiting toxicity: 400 mg bi-daily with cisplatin and capecitabine; for dose limiting toxicity: first two treatment cycles
Protocol: Example 1 Treatment of Gastric Cancer with Valitinib 400 mg Bi-Daily Orally and Cisplatin/Capecitabine Combination Chemotherapy
person one with Her2 positive (3+) stage IV gastric cancer had progressive disease in the form of 2 target lesions following: • first line treatment with cisplatin and Xeloda® (capecitabine)—4 cycles, • second line treatment with the experimental drug TDM1 (an antibody drug conjugate comprising Herceptin®)—9 cycles, • third line treatment with experimental drug LJM716 (a Her3 monoclonal antibody) and Herceptin®.
After treatment cycle 4 with ASLAN001 400 mg bi-daily, cisplatin and capecitabine, see FIG. 1. […] The cisplatin and capecitabine regime was cisplatin 80 mg/m^2 IV infusion and capecitabine 1000 mg/m^2 orally twice daily for 14 days every 3 weeks.
person two with gastric cancer (4 target lesions) was given first line treatment of Valitinib 400 mg bi-daily, cisplatin and capecitabine. […] The cisplatin and capecitabine regime was cisplatin 80 mg/m^2 IV infusion and capecitabine 1000 mg/m^2 orally twice daily for 14 days every 3 weeks.

[4] = test system: stage IV Cholangiocarcinoma and metastatic lymphadenopathy; assay: Treatment of stage IV cholangiocarcinoma and metastatic lymphadenopathy patient with Varlitinib and cisplatin/5FU; details: person, first line, 300 mg BID Varlitinib combined with Cis/5-FU
Protocol: Example 5 Treatment of Stage IV Cholangiocarcinoma and Metastatic Lymphadenopathy with Varlitinib 400 mg Bi-Daily Orally and Cisplatin/5FU Combination Chemotherapy A person with stage IV Cholangiocarcinoma and metastatic lymphadenopathy diagnosed in January 2016, no prior surgery or treatment was give first line treatment of 300 mg BID Varlitinib combined with Cis/5-FU, 28-day cycle.

[5] = test system: intrahepatic bile duct cholangiocarcinoma; assay: Treatment of intrahepatic bile duct cholangiocarcinoma patient with Varlitinib and FOLFOX; details: person, progressive on gemcitabine and cisplatin; 9 cycles Varlitinib 400 mg reduced to 300 mg BID and FOLFOX, then 7 cycles monotherapy
Protocol: Example 6 Treatment of the Intrahepatic Bile Duct Cholangiocarcinoma with 300 mg Valitinib and FOLFOX A person diagnosed in 2013 with intrahepatic bile duct cholangiocarcinoma, had received surgery in the form of left hemihepatectomy in 15 Jul. 2013. Prior therapies were gemcitabine and cisplatin 14 Aug. 2013 with last dose 8 Jan. 2014 and repeated between 13 May 2015 and 1 Jul. 2015. With this treatment the status was progressive disease. The patient was give 9 cycles combination Varlitinib 400 mg reduced to 300 mg BID and FOLFOX. This was followed with 7 cycles of Valitinib monotherapy.

[6] = 9 cycles 300 mg BID and FOLFOX, then 5 cycles 300 mg monotherapy

## C[C@@H]1COC(Nc2ccc3ncnc(Nc4ccc(OCc5nccs5)c(Cl)c4)c3c2)=N1 [Varlitinib, (R)—N4-[3-Chloro-4-(thiazol-2-ylmethoxy)-phenyl]-N6-(4-methyl-4,5,-dihydro-oxazol-2-yl)-quinazoline-4,6-diamine]
[1]
  response after 2 cycles (figure): 335
  response category after 2 cycles: partial response
[2]
  signs of clinical activity: cell survival and proliferation: reduction in cell survival and cell proliferation
  signs of clinical activity: signalling pathways: downregulation of signalling pathways responsible for cell proliferation
Bladder cancer; 300 mg BID and FOLFOX combination therapy
  adverse event leading to treatment interruption: G2 weight loss
Bladder cancer; [6]
  best % tumour change: −4%
  patient status: stable disease
[3]; cholangiocarcinoma, 400 mg bi-daily with cisplatin and capecitabine
  tolerability: well tolerated
[3]; cholangiocarcinoma, first two treatment cycles, 400 mg bi-daily with cisplatin and capecitabine
  dose limiting toxicity: No dose limiting toxicity was observed
[3]; stage IV cholangiocarcinoma, progressive after radiotherapy and 5-FU, Varlitinib orally 500 mg bi-daily, cisplatin and capecitabine
  response after treatment cycle 2: 4%
tumour; Combo with cis/5-FU, 300 mg Varlitinib, 6 patients
  Best response (% change): −21%
tumour; Combo with cis/5-FU, 400 mg Varlitinib, 7 patients
  Best response (% change): −47%
tumour; Combo with cis/cap, 400 mg Varlitinib, 6 patients
  Best response (% change): −87%
tumour; Combo with cis/cap, 500 mg Varlitinib, 4 patients
  Best response (% change): −4%
Gastric cancer; person one, Her2 positive (3+) stage IV gastric cancer, progressive after three prior lines, Varlitinib 400 mg bi-daily, cisplatin and capecitabine
  response after treatment cycle 4: 29%
Gastric cancer; person one, gastric cancer
  tolerability: well tolerated
  dose limiting toxicity: No dose limiting toxicity was observed
Gastric cancer; person one, stage IV gastric cancer, after cycle 4 of Varlitinib 400 mg bi-daily, cisplatin and capecitabine
  disease status category: stable disease
Gastric cancer; person two, gastric cancer (4 target lesions), first line, 400 mg bi-daily, cisplatin and capecitabine
  response after cycle 4: 41%
Gastric cancer; person two, gastric cancer
  tolerability: well tolerated
  dose limiting toxicity: No dose limiting toxicity was observed
Gastric cancer; person two, gastric cancer, due to development of a new bone lesion
  disease status designation: progression disease
[4]
  current disease status: stable disease
[4]; 28-day cycle, 5 Mar. 2016
  tumor reduction at first response (C2): 16%
[4]; 28-day cycle, 17 May 2016
  tumor reduction at last response (C4): 13%
[5]
  patient status: partial response
